Measurements as given in publication PMC10275055, “Preventing recurrence in Sonic Hedgehog Subgroup Medulloblastoma using the OLIG2 inhibitor CT-179” (Research Square, 2023).

Key:
[1] = target: T1, Fetal Liver Tyrosine Kinase 3 (FLT3) (Homo sapiens, UniProt P36888); assay: Kinase profiling (KINOMEscan / SelectScreen) and dose response follow-up, FLT3; assay type: biochemical; conditions: ATP equal to Km
T1 sequence (P36888 27-993): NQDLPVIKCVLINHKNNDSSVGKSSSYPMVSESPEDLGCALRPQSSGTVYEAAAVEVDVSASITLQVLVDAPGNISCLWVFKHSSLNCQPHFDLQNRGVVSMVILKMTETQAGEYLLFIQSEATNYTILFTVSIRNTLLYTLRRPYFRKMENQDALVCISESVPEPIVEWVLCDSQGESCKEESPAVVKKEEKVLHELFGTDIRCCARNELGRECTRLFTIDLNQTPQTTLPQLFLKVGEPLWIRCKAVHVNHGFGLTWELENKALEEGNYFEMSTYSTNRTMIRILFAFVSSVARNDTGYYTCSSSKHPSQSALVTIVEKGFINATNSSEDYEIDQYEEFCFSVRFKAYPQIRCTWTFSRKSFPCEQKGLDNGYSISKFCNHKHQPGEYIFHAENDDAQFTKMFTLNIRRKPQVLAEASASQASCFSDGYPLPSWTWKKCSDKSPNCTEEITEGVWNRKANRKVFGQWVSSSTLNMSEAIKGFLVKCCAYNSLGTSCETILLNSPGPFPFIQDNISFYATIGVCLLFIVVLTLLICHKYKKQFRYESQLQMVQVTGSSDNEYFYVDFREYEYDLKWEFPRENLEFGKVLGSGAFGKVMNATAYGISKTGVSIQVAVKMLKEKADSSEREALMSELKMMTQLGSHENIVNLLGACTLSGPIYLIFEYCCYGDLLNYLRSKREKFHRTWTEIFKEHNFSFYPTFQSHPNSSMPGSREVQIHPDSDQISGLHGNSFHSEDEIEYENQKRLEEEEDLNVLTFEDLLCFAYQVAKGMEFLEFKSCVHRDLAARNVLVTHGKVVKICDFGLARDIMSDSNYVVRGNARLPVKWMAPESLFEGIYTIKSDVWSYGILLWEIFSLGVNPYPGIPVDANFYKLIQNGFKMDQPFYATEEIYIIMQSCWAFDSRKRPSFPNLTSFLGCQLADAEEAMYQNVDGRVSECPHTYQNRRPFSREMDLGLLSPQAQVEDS
Protocol: Effect of CT-179 on protein kinase activity was evaluated using the Thermofisher Scientific SelectScreen Kinase Profiling Service. Over 400 human protein kinases were tested in the presence of 1 μM final concentration of CT-179 at an ATP concentration equal to the known ATP Km for each kinase. The experiment was done by Curtana Pharmaceuticals. Data is presented as percentage of inhibition of enzyme activity. Software CORAL was used to make the kinome tree, which is available from: http://phanstiel-lab.med.unc.edu/CORAL/.

[2] = test system: OLIG2-driven transcription (human LHX8 promoter); assay: LHX8 promoter luciferase reporter assay in Daoy cells; assay type: cell-based; conditions: OLIG2 overexpression, 250 nM, 24 hours
From the text: Promoter region of human LHX8 was amplified by PCR from human genomic DNA extracted from Med-813luci cells with primers shown in STAR METHODS. The promoter region was inserted into the pGL3-Basic luciferase-reporter vector (Promega). Flag-OLIG2 were synthesised as a gBlock flanked by the Nhel and BamHI restriction enzyme sites (Integrated DNA Technologies, Singapore). The gBlock was restriction digested and ligated into the expression vector, pLEX_307 (a gift from Joseph Rosenbluh, Monash University, Australia) to form pLX307/FLAG-OLIG2. Firefly luciferase-reporter construct (300 ng, pGL3-Basic or pGL3-LHX8), pRL Renilla luciferase SV40 Control Reporter Vector (Promega, 50 ng), and pLX307/Flag-OLIG2 (300 ng) or pLX307/empty vector (300 ng) were reverse co-transfected with Daoy cells (1 × 10^5/well) in 24-well plates using Lipofectamine™ 3000 (Invitrogen). CT-179 (250 nM) was added and incubated for 24 hours. The luciferase activity was examined using Dual-Glo® Luciferase Assay System (Promega) according to the manufacturer’s instructions, and the signal was normalised to vector controls.

Question: How did the inhibition at 1 µM [1] turn out when `Cc1cc(NCCCN(C)C)nc(NC(=O)Nc2ccc(Cl)c(Cl)c2)n1` [CT-179] was run?
Answer: 84%

Question: And the “luciferase expression (LHX8 promoter reporter)” value [2]?
Answer: significantly decreased
